The values that follow are results of earlier work, collected in patent publication US7141235B2, “Stabilized gas emulsion containing phospholipid for ultrasound contrast enhancement” (Imcor Pharmaceutical Co., priority 1993, dated 2006).

Each structure is given as a SMILES string.

The conditions of the data set: in water.

Turning to `CCCCCCCCCCCCCCCCCC(=O)OC[C@H](COP(=O)([O-])OCC[N+](C)(C)C)OC(=O)CCCCCCCCCCCCCCCCC` [DSPC, distearoyl phosphatidylcholine], the “gel to liquid-crystal phase transition temperature” value was 55.5 °C.

`CCCCCCCCCCCCCC(=O)OC[C@H](COP(=O)([O-])OCC[N+](C)(C)C)OC(=O)CCCCCCCCCCCCC` [DMPC, dimyristoyl phosphatidylcholine]: the “gel to liquid-crystal phase transition temperature” value was 23.5 °C.
